# Experimental data as given in ChEMBL document CHEMBL1201862, “PubChem BioAssay data set” (2004).
# Active and inactive are the calls of the source.
# Columns and labels:
# [1] = biological target: DNA dC->dU-editing enzyme APOBEC-3G (Homo sapiens, UniProt Q9HC16); assay: Dose Response confirmation of small molecule APOBEC3G DNA Deaminase Inhibitors via a fluorescence-based single-stranded DNA deaminase assay. [Related pubchem assays (depositor defined):AID493012, AID493028]; format: functional
# DNA dC->dU-editing enzyme APOBEC-3G, sequence (Q9HC16 whole entry): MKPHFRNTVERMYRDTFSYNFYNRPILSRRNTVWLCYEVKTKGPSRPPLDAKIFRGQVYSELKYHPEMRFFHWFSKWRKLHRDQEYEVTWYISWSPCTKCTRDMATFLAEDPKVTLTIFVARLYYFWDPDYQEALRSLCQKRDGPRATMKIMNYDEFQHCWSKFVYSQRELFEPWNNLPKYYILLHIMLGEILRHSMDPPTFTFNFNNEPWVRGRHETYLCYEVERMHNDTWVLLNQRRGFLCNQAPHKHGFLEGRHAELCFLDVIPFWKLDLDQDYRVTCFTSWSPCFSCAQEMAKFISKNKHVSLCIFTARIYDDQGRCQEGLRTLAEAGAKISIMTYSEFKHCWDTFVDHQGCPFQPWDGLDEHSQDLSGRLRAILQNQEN
# [2] = biological target: FAD-linked sulfhydryl oxidase ALR (Homo sapiens, UniProt P55789); assay: ALR-catalysed DTT oxidation blockers – biochemical, H2O2 detection, luminescence, cherry-pick, dose response (AID 493248)
# FAD-linked sulfhydryl oxidase ALR, sequence (P55789 whole entry): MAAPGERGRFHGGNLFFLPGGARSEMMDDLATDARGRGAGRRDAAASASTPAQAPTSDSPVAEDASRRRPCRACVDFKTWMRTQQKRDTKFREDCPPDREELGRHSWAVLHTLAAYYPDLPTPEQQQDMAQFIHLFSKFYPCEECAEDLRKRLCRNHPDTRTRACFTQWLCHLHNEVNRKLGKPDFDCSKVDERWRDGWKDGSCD
# [3] = biological target: DNA dC->dU-editing enzyme APOBEC-3A (Homo sapiens, UniProt P31941); assay: A3A deaminase inhibition for selectivity – biochemical, dose response (AID 504722); format: functional
# DNA dC->dU-editing enzyme APOBEC-3A, sequence (P31941 whole entry): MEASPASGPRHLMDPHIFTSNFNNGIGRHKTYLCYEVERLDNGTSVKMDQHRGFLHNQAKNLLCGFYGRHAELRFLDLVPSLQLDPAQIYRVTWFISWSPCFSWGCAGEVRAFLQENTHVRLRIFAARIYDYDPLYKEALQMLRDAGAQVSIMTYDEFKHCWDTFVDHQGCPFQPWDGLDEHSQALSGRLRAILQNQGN
# Melanocortin receptor 4 = Melanocortin receptor 4 (Homo sapiens, UniProt P32245); format: functional, cell-based;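 also: Cell-based assay with luminescence read-out, confirmatory dose-response testing for agonist activity of biased ligands at MC4R; human U2OS cells with tagged receptor and beta-arrestin; potency of agonists that increase receptor coupling to beta-arrestin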
# Melanocortin receptor 4, sequence (P32245 whole entry): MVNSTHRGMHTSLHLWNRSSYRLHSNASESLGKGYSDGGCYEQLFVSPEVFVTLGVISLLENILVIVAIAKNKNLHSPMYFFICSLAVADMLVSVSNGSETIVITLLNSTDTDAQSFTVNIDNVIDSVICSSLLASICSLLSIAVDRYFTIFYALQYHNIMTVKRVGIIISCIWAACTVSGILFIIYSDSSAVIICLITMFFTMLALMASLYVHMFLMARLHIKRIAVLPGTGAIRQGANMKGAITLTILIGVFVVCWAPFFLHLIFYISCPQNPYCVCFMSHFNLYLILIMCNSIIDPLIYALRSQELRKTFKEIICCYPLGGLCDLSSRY
# [4] = microbe, parasite or virus in culture; format: functional; conditions: Mycobacterium tuberculosis
# [5] = biological target: G-protein coupled receptor 55 (Homo sapiens, UniProt Q9Y2T6); assay: inhibition of LPI-stimulated GPR55 beta-arrestin translocation – imaging, U2OS, beta-arrestin-GFP, LPI agonist, primary screen (AID 2013); format: functional;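 also: antagonist potency measured as reduced agonist-driven arrestin aggregation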
# G-protein coupled receptor 55, sequence (Q9Y2T6 whole entry, the tested form may be a part): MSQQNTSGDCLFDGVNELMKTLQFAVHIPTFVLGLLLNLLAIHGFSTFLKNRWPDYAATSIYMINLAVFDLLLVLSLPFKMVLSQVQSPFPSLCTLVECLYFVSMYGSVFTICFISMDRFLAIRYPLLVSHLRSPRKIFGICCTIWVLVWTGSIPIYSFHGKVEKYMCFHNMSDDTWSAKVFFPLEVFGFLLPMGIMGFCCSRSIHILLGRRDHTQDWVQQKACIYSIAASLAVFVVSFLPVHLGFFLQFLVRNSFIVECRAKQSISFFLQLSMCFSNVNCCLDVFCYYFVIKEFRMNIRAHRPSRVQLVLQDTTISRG
# [6] = biological target: T1, Carboxy-terminal domain RNA polymerase II polypeptide A small phosphatase 1 (Homo sapiens, UniProt Q9GZU7); assay: CTDSP1 inhibitors, concentration-response, biochemical, absorbance readout, ultra-high-throughput screen actives (AID 540297); format: functional
# T1 sequence (Q9GZU7 whole entry): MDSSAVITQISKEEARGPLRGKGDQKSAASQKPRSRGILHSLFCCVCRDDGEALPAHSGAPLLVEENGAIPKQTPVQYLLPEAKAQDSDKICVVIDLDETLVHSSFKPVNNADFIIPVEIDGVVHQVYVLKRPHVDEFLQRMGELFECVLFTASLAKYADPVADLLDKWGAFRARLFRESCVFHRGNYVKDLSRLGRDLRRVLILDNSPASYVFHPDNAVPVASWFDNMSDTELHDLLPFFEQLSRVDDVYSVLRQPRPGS
# Estrogen receptor = biological target: T2, Estrogen receptor (Homo sapiens, UniProt P03372);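 also: potency for inhibiting coactivator peptide recruitment to the receptor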
# T2 sequence (P03372 whole entry): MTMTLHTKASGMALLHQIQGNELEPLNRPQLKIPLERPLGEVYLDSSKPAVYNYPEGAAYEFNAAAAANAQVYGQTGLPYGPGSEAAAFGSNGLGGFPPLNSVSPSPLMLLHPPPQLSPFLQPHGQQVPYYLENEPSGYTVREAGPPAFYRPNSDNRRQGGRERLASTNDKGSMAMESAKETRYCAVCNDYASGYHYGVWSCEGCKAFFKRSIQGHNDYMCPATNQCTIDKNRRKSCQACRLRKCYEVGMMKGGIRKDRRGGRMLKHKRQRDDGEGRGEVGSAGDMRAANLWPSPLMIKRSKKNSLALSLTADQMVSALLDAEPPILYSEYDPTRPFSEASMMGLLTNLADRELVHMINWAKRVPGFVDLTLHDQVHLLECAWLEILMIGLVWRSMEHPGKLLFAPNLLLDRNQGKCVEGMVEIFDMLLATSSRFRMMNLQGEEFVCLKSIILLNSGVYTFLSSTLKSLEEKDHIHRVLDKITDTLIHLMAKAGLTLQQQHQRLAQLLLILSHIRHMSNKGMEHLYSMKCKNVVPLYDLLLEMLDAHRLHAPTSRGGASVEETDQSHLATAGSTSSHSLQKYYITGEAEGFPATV
# Estrogen receptor beta [7] = biological target: T3, Estrogen receptor beta (Homo sapiens, UniProt Q92731);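 also: recombinant ER-beta bound to coactivator SRC1 peptide in presence of estradiol agonist; inhibitors block coactivator peptide binding and lower the FRET signal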
# T3 sequence (Q92731 whole entry): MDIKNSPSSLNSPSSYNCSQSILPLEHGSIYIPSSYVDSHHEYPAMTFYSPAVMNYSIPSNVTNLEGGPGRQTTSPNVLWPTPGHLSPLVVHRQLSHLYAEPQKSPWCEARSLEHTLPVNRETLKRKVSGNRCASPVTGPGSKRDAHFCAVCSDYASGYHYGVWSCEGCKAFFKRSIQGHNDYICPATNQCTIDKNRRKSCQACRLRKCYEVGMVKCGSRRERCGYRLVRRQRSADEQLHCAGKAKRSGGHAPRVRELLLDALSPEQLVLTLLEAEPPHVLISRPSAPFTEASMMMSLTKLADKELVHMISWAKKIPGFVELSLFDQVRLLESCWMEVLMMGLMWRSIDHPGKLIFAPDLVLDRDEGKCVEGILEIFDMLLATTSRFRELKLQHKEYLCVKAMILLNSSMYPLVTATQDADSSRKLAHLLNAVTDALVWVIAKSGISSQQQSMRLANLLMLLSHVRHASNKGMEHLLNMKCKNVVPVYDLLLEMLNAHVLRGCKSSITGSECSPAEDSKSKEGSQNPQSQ
# Estrogen receptor beta [8] = biological target: T3, Estrogen receptor beta; assay: blockers of SRC-3 recruitment to ERβ – biochemical, ELISA, streptavidin-HRP readout, orthogonal assay, confirmation (AID 1060)
# [9] = biological target: Polyadenylate-binding protein 1 (Homo sapiens, UniProt P11940); assay: PABP inhibition in translation initiation, SAR follow-up (AID 435018); format: functional
# Polyadenylate-binding protein 1, sequence (P11940 whole entry): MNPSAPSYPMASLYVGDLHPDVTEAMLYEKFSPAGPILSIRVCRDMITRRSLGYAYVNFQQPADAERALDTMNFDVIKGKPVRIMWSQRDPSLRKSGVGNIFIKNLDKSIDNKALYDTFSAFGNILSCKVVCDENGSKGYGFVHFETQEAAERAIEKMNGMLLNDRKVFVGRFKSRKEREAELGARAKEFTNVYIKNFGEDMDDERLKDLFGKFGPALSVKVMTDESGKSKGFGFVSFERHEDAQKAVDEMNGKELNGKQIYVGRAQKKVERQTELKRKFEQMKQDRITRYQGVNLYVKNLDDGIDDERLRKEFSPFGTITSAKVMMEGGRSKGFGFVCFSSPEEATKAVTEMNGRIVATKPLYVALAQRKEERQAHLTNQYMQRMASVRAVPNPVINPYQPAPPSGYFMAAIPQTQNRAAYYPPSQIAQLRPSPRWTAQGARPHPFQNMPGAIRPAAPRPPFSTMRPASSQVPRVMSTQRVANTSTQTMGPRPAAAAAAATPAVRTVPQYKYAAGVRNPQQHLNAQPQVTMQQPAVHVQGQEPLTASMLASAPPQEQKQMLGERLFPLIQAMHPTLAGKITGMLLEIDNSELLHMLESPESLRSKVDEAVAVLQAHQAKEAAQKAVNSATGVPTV
# [10] = biological target: DNA (cytosine-5)-methyltransferase 1 (Homo sapiens, UniProt P26358); assay: inhibition of DNA methylation by DNMT1 – biochemical, fluorescent molecular beacon, confirmation (AID 602386); format: functional
# [11] = biological target: Eukaryotic translation initiation factor 4H (Homo sapiens, UniProt Q15056); assay: inhibitors of translation initiation factor eIF4H – SAR follow-up (AID 435011); format: functional
# [12] = biological target: Induced myeloid leukemia cell differentiation protein Mcl-1 (Homo sapiens, UniProt Q07820); format: functional
# Induced myeloid leukemia cell differentiation protein Mcl-1, sequence (Q07820 whole entry, the tested form may be a part): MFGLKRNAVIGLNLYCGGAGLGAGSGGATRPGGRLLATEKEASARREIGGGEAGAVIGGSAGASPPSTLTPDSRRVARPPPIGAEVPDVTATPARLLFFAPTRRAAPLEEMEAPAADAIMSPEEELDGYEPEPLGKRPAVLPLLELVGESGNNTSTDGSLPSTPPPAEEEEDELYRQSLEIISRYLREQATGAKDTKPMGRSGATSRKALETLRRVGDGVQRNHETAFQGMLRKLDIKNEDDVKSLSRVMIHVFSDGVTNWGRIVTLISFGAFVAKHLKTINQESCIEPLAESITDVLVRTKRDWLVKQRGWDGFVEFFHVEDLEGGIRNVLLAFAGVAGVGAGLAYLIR
# [13] = off-target signal loss in HeLa-CEM21 co-culture – HeLa F-luc CTL cells, cherry-picked, counter-screen for HIV-1 Env fusion inhibitor project, dose response (AID 652040); format: functional, cell-based;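 also: potency for signal decrease marking cytotoxic or nonspecific inhibition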
# [14] = blockers of HIV-1 ZM109 envelope-driven cell-cell fusion – HeLa effector, CEM target cells, luciferase, cherry-pick, dose response (AID 652058); format: functional, cell-based;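 also: luciferase signal from HIV-1 Env mediated cell-cell fusion of effector and target cells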
# [15] = blockers of HIV-1 envelope-mediated cell-cell fusion – cherry-pick, dose response (AID 652057); format: functional, cell-based
# Genome polyprotein = Genome polyprotein (dengue virus type 2, UniProt P29990); assay: flavivirus cap methylation enzyme inhibition – biochemical, confirmation dose response, primary screen (AID 588689); format: functional
# Hexokinase HKDC1 = biological target: T4, Hexokinase HKDC1 (Homo sapiens, UniProt Q2TB90); assay: inhibition of HKDC1 glucose phosphorylation – biochemical, W721R variant, dose response (AID 504729); format: functional
# T4 sequence (Q2TB90 whole entry): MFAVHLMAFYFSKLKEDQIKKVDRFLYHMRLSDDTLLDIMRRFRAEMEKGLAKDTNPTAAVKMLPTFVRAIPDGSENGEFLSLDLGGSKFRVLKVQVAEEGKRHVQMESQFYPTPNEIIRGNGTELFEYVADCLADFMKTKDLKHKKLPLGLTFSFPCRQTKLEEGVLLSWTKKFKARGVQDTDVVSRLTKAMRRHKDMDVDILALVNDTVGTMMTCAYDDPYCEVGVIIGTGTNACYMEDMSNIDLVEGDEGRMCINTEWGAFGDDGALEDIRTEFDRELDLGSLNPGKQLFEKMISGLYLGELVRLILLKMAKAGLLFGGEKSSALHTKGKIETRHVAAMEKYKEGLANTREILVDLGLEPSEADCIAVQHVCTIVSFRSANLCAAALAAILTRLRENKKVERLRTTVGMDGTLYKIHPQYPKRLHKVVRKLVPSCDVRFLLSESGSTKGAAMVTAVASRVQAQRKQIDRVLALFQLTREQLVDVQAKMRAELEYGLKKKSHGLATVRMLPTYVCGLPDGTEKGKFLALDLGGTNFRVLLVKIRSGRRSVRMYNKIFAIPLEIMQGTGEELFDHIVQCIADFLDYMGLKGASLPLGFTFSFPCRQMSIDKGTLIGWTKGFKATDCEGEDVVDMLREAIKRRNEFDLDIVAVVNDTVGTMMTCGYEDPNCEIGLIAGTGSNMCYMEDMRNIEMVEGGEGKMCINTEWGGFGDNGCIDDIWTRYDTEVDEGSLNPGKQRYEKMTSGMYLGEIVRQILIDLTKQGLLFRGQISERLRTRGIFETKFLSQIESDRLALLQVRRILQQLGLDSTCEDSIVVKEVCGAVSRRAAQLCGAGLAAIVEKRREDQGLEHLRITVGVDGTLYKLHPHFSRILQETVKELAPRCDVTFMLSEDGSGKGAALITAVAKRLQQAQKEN
# [16] = biological target: T5, Lysine-specific demethylase 4C (Homo sapiens, UniProt Q9H3R0); assay: inhibition of JMJD2C H3K9me3 demethylation – biochemical, DELFIA europium, cherry-picked samples, dose response (AID 488835); format: functional
# T5 sequence (Q9H3R0 whole entry): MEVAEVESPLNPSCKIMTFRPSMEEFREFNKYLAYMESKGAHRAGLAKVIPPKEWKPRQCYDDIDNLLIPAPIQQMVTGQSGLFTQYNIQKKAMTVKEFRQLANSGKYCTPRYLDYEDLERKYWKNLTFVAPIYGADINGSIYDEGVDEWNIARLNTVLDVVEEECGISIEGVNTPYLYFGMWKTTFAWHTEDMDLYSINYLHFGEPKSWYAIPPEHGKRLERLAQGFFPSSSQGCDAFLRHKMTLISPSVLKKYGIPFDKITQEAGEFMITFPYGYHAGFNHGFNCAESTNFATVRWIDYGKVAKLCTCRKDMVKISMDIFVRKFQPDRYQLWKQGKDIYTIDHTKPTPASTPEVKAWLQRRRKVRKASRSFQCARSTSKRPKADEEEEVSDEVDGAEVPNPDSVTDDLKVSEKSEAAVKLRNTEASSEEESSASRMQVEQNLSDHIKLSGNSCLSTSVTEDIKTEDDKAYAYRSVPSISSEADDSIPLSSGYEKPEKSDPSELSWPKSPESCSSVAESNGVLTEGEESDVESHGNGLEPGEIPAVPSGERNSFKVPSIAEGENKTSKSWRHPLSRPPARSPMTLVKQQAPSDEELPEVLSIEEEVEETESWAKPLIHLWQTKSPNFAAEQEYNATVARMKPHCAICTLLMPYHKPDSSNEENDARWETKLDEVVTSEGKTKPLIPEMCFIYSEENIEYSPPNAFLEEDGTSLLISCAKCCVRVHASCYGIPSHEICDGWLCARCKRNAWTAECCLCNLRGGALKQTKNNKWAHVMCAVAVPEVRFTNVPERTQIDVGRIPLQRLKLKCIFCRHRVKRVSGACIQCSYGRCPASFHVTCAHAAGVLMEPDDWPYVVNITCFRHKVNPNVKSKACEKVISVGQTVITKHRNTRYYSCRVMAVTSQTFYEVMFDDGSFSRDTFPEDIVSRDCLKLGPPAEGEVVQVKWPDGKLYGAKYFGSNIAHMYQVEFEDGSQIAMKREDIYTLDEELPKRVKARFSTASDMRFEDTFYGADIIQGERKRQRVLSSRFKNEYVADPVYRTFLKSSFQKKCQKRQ
# Beta-galactosidase = Beta-galactosidase (Escherichia coli, UniProt Q8VNN2); assay: detection-enzyme interference by beta-gal modulators – biochemical, E. coli enzyme, set 3, artefact control for CCR6 antagonist project, dose response (AID 504712); format: functional
# Beta-galactosidase, sequence (Q8VNN2 whole entry): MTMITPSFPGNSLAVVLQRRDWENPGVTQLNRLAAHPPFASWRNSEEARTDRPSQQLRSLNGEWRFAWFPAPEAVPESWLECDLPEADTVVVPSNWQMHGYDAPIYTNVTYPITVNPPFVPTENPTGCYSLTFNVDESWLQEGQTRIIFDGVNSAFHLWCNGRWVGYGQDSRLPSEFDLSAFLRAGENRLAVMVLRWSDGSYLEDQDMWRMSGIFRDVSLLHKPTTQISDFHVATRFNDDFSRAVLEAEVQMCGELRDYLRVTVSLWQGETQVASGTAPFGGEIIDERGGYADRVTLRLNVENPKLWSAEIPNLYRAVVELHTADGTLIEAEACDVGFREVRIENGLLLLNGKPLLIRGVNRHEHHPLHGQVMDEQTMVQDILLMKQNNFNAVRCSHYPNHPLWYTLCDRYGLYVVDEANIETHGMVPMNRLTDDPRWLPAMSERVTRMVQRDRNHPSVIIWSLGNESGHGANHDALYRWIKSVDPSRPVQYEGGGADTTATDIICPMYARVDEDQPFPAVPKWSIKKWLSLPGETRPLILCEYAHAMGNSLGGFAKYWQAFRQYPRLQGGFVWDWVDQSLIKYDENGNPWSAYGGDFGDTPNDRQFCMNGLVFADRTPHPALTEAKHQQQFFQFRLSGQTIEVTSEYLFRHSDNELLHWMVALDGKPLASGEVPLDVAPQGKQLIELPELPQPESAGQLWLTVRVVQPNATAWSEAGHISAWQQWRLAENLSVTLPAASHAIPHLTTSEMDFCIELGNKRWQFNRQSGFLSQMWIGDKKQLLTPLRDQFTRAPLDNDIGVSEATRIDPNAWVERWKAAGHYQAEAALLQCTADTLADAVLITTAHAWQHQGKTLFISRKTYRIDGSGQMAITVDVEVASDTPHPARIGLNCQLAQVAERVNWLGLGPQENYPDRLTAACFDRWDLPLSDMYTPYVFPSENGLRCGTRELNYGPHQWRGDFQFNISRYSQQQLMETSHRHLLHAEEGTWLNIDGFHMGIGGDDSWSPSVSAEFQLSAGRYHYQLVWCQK
# Vero = assay: viability of Vero cells under compound – cytotoxicity control for flavivirus capping enzyme inhibitors (AID 588742); format: functional; conditions: Chlorocebus sabaeus
# [17] = biological target: T6, Mannose-6-phosphate isomerase (Homo sapiens, UniProt P34949); assay: MPI enzyme activity inhibition – biochemical, fluorescence intensity, coupled assay, primary screen (AID 1209)
# T6 sequence (P34949 whole entry): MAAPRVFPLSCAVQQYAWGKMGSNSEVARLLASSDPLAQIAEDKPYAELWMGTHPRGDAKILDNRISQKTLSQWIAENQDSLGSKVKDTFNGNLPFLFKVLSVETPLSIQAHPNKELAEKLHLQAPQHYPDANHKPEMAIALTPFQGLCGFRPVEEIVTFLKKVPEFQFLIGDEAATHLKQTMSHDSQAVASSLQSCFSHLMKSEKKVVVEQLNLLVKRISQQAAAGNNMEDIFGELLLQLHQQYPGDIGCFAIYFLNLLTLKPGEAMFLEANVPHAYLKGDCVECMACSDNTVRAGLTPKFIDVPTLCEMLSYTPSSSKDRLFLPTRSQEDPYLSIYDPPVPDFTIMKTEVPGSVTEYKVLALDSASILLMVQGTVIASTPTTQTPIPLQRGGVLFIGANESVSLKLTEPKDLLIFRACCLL
# [18] = biological target: T6, Mannose-6-phosphate isomerase; assay: MPI inhibition at elevated mannose 6-phosphate – biochemical, fluorescence intensity, high mannose 6-phosphate, primary screen (AID 1220)
# Hexokinase = Hexokinase (Trypanosoma brucei, UniProt Q38C41); assay: Confirmation assay for inhibitors of Trypanosoma brucei hexokinase 1-Analogue-first series. [Related pubchem assays (depositor defined):AID1430, AID1632, AID2516, AID2560, AID2579, AID2600, AID449725, AID492951]; format: functional
# Hexokinase, sequence (Q38C41 whole entry): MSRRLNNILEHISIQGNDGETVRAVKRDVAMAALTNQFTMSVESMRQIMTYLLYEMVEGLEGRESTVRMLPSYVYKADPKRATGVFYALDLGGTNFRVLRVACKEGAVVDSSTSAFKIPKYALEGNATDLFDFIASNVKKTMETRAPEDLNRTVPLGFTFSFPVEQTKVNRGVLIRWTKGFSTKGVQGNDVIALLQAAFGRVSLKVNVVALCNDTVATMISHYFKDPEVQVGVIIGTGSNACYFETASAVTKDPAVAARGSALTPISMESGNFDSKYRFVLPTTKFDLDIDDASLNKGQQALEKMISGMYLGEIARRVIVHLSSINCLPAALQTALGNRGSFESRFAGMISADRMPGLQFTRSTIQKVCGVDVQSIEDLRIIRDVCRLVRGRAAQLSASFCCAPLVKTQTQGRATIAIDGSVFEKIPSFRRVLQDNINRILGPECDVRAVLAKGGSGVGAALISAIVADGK
smiles,measurement,setting,value
Cn1c(CSc2nc3ccccc3s2)n[nH]c1=S,IC50,[1],4.35 µM (active)
same,AC50,[2],1.82 µM (active)
same,IC50,[3],> 100 µM (inactive)
OC(CNCCc1ccc(C(F)(F)F)cc1)COC(c1ccccc1)c1ccccc1 (configuration not stated),EC50,Melanocortin receptor 4,> 89.2 µM (inactive)
same,CC50,[4],24.5 µM (active)
same,IC50,[5],2.65 µM (active)
COc1ccc(N2Cc3cccc(C(=O)N4CCN(C(=O)c5ccco5)CC4)c3C2=O)cc1,IC50,[6],4.24 µM (active)
same,IC50,Estrogen receptor,9.8 µM (active)
same,IC50,Estrogen receptor beta [7],5.99 µM (active)
same,IC50,Estrogen receptor beta [8],> 50 µM (not active)
same,IC50,[9],10.2 µM (active)
same,IC50,[10],9.04 µM (active)
same,IC50,[11],1.43 µM (active)
same,IC50,[12],3.1 µM (active)
COc1ccc(CCN2C(=O)c3[nH]nc(-c4ccccc4O)c3C2c2cccc(O)c2)cc1OC (configuration not stated),AC50,[13],17.6 µM (active)
same,IC50,[5],2.7 µM (active)
same,AC50,[14],8.34 µM (active)
same,AC50,[15],2.44 µM (active)
CCOC(=O)C1=C(Cc2ccc(F)cc2)C(=O)c2ccccc2C1=O,IC50,Genome polyprotein,86.4 µM (active)
same,IC50,Hexokinase HKDC1,11.4 µM (active)
same,AC50,[16],13.4 µM (active)
same,IC50,Beta-galactosidase,> 66.6 µM (inactive)
same,CC50,Vero,> 40 µM (active)
Nn1c(S)nnc1Cc1ccc(Br)cc1,IC50,[17],> 50 µM (not active)
same,IC50,[1],3.6 µM (active)
same,IC50,[18],> 50 µM (not active)
same,IC50,[3],> 100 µM (inactive)
Cc1cccc(C(=O)Nc2cc(Cl)ccc2C(=O)O)c1,IC50,Hexokinase,22.3 µM (active)
O=C(Cn1sc2ccccc2c1=O)Nc1ccc(C(F)(F)F)cc1,IC50,Hexokinase,> 25 µM (inactive)
COC(=O)c1[nH]c2ccccc2c1Sc1ccccc1,IC50,[9],> 100 µM (inactive)
same,IC50,[11],> 100 µM (inactive)
O=C(COc1ccc(Cl)cc1)N/N=C/c1cccc2cccnc12,IC50,Beta-galactosidase,> 66.6 µM (inactive)
